Patent publication US8980850B2, “Administration of a NEDD8-activating enzyme inhibitor and hypomethylating agent” (Millennium Pharmaceuticals, Inc., priority 2011, dated 2015)

Columns and labels:
[1] = test system: THP-1 subcutaneous xenograft tumors; assay: THP-1 subcutaneous xenograft model, tumor growth and synergy; conditions: s.c. Days 1, 4, 8, 11, 15 and 18; FIG. 3
[2] = test system: HL-60 disseminated xenograft; assay: HL-60 disseminated xenograft model, survival; format: in vivo, female mice CB-17 SCID; conditions: MLN4924 180 mg/kg and/or azacitidine 10 mg/kg s.c. on days 22, 25, 29, 32, 36, 39; for Mean survival time: Vehicle 48.1
Method: Test subjects. […] On day 20 post-inoculation, mice were randomized into groups of 10. Starting on day 22, mice were dosed subcutaneously with vehicle, 180 mg/kg MLN4924, 10 mg/kg azacitidine, or the combination of 180 mg/kg MLN4924 and 10 mg/kg azacitidine, using the same twice-weekly schedule as described in the subcutaneous xenograft experiments (dosing on days 22, 25, 29, 32, 36, 39). The mice were monitored at least twice weekly for body weight loss and signs of disease, including paresis or paralysis of hind limbs and emergence of palpable and internal solid tumors. The day on which an animal died or was sacrificed due to disease burden was recorded.
To determine synergy in the survival times, the mean survival times and corresponding standard errors were computed for each treatment group.

[3] = test system: HL60 subcutaneous xenograft tumors; assay: HL-60 subcutaneous xenograft model, tumor growth and synergy; conditions: s.c. Days 1, 4, 8, 11, 15 and 18; FIG. 2
[4] = test system: OCI-M2 subcutaneous xenograft tumors; assay: OCI-M2 subcutaneous xenograft model, tumor growth and synergy; conditions: s.c. Days 1, 4, 8, 11, 15 and 18; FIG. 4

Compound | effect on tumor growth [1] | extension of mean survival time compared to the control group [2] [days] | Mean survival time [2] [days] | effect on tumor growth [3] | effect on tumor growth [4] | single agent activity (THP-1)
NS(=O)(=O)OC[C@@H]1C[C@@H](n2ccc3c(N[C@H]4CCc5ccccc54)ncnc32)C[C@@H]1O [MLN4924, ((1S,2S,4R)-4-(4-((1S)-2,3-dihydro-1H-inden-1-ylamino)-7H-pyrrolo[2,3-d]-pyrimidin-7-yl)-2-hydroxycyclopentyl)methyl sulfamate] | inhibited tumor growth | 8.4 | 56.5 | marginal effect on tumor growth | inhibited tumor growth | –
Nc1ncn([C@H]2C[C@H](O)[C@@H](CO)O2)c(=O)n1 [decitabine, 4-amino-1-(2-deoxy-β-D-erythropentofuranosyl)-1,3,5-triazin-2(1H)-one] | – | – | – | – | – | lack of single agent activity
Nc1ncn([C@@H]2O[C@H](CO)[C@@H](O)[C@H]2O)c(=O)n1 [azacitidine, 4-amino-1-β-D-ribofuranosyl-s-triazin-2(1H)-one] | marginal effect on tumor growth | 21.1 | 69.2 | marginal effect on tumor growth | inhibited tumor growth | –
